Laboratory results: patent US10323022B2, “Pyrrolidinyl urea, pyrrolidinyl thiourea and pyrrolidinyl guanidine compounds as TrkA kinase inhibitors” (Array BioPharma Inc., priority 2011, dated 2019)

Target: TrkA (Homo sapiens (Human), UniProt P04629)
Assay: TrkA Omnia Assay
Assay type: biochemical
Conditions: averaged IC50; 20 nM enzyme, 500 μM ATP, 10 μM peptide substrate
How it was run: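 Recombinant TrkA (20 nM) preincubated 10 min at ambient temperature with compound, then Omnia Tyr Peptide #4 (10 μM) and ATP (500 μM) added in 25 mM MOPS pH 7.5, 5 mM MgCl2, 0.005% Triton X-100. Fluorescence (ex 360/em 485 nm) followed continuously for 70 min; IC50 from initial rates by 4- or 5-parameter logistic fit.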

TrkA, sequence (P04629 33-796): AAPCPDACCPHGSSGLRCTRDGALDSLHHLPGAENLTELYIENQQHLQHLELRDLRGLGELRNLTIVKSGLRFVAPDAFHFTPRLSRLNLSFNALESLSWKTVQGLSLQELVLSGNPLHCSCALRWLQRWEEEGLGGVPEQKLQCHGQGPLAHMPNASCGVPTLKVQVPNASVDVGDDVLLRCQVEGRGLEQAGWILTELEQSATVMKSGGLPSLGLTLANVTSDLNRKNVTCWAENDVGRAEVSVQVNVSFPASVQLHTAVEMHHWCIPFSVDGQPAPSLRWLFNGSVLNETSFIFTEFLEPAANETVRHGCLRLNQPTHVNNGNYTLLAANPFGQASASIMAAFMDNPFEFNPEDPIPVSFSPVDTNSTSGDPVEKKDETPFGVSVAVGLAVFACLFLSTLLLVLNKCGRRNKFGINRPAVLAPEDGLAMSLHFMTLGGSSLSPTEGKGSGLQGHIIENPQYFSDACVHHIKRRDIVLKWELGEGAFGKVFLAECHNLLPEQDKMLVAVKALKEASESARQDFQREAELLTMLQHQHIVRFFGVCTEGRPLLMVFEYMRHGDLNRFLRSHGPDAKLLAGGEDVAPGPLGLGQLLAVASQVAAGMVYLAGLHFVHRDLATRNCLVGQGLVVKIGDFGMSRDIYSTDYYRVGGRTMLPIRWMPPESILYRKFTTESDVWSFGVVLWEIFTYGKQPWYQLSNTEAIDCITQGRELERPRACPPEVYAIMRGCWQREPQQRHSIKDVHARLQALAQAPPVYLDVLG

| SMILES | IC50 |
| --- | --- |
| COCCN1C[C@@H](NC(=O)Nc2cc(-c3ccc(F)cc3)nn2C)[C@H](c2ccccc2)C1 [Example 107, 1-(3-(4-fluorophenyl)-1-methyl-1H-pyrazol-5-yl)-3-((3S,4R)-1-(2-methoxy-ethyl)-4-phenylpyrrolidin-3-yl)urea] | < 100 nM |
| COCCN1C[C@@H](NC(=O)Nc2cc(-c3ccccc3)nn2C)[C@H](c2cccc(F)c2)C1 [Example 110, 1-((3S,4R)-4-(3-fluoro-phenyl)-1-(2-methoxy-ethyl)pyrrolidin-3-yl)-3-(1-methyl-3-phenyl-1H-pyrazol-5-yl)urea] | < 100 nM |
| COCCN1C[C@@H](NC(=O)Nc2cc(-c3ccccc3)nn2C)[C@H](c2ccc(F)cc2F)C1 [Example 111, 1-((3S,4R)-4-(2,4-difluorophenyl)-1-(2-methoxyethyl)pyrrolidin-3-yl)-3-(1-methyl-3-phenyl-1H-pyrazol-5-yl)urea] | < 100 nM |
| COCCN1C[C@@H](NC(=O)Nc2cc(-c3ccc(F)cc3)nn2C)[C@H](c2cccc(F)c2)C1 [Example 112, 1-((3S,4R)-4-(3-fluoro-phenyl)-1-(2-methoxy-ethyl)pyrrolidin-3-yl)-3-(3-(4-fluorophenyl)-1-methyl-1H-pyrazol-5-yl)urea] | < 100 nM |
| COCCN1C[C@@H](NC(=O)Nc2cc(-c3ccccc3F)nn2C)[C@H](c2ccc(F)c(F)c2)C1 [Example 115, 1-((3S,4R)-4-(3,4-difluorophenyl)-1-(2-methoxyethyl)pyrrolidin-3-yl)-3-(3-(2-fluoro-phenyl)-1-methyl-1H-pyrazol-5-yl)urea] | < 100 nM |
| COCCN1C[C@@H](NC(=O)Nc2c3c(nn2-c2ccccc2)CCC3)[C@H](c2cccc(F)c2)C1 [Example 116, 1-((3S,4R)-4-(3-fluoro-phenyl)-1-(2-methoxy-ethyl)pyrrolidin-3-yl)-3-(2-phenyl-2,4,5,6-tetrahydrocyclopenta [c]pyrazol-3-yl)urea] | < 100 nM |
| COCCN1C[C@@H](NC(=O)Nc2c(C)c(C(C)(C)CO)nn2-c2ccccc2)[C@H](c2ccccc2)C1 [Example 117, 1-(3-(1-hydroxy-2-methylpropan-2-yl)-4-methyl-1-phenyl-1H-pyrazol-5-yl)-3-((3S,4R)-1-(2-methoxyethyl)-4-phenylpyrrolidin-3-yl) urea] | < 100 nM |
| COCCN1C[C@@H](NC(=O)Nc2cc(-c3ccc(F)cc3)nn2C)[C@H](c2cc(F)ccc2F)C1 [Example 120, 1-((3S,4R)-4-(2,5-difluorophenyl)-1-(2-methoxyethyl)pyrrolidin-3-yl)-3-(3-(4-fluoro-phenyl)-1-methyl-1H-pyrazol-5-yl)urea] | < 100 nM |
| COCCN1C[C@@H](NC(=O)Nc2cc(-c3ccccc3)nn2CCO)[C@H](c2ccc(F)c(F)c2)C1 [Example 122, 1-((3S,4R)-4-(3,4-difluorophenyl)-1-(2-methoxyethyl)pyrrolidin-3-yl)-3-(1-(2-hydroxy-ethyl)-3-phenyl-1H-pyrazol-5-yl)urea] | 100 to 1000 nM |
| COCCN1C[C@@H](NC(=O)Nc2c(C)c(COC)nn2-c2ccccc2)[C@H](c2ccc(F)c(F)c2)C1 [Example 123, 1-((3S,4R)-4-(3,4-difluorophenyl)-1-(2-methoxyethyl)pyrrolidin-3-yl)-3-(3-(methoxy-methyl)-4-methyl-1-phenyl-1H-pyrazol-5-yl)urea] | < 100 nM |
| COCCN1C[C@@H](NC(=O)Nc2c(C)c(COC)nn2-c2ccccc2)[C@H](c2cc(F)cc(F)c2)C1 [Example 124, 1-((3S,4R)-4-(3,5-difluorophenyl)-1-(2-methoxyethyl)pyrrolidin-3-yl)-3-(3-(methoxy-methyl)-4-methyl-1-phenyl-1H-pyrazol-5-yl)urea] | < 100 nM |
| COCCN1C[C@@H](NC(=O)Nc2cc(-c3ccc(SC)cc3)nn2C)[C@H](c2ccc(F)c(F)c2)C1 [Example 125, 1-((3S,4R)-4-(3,4-difluorophenyl)-1-(2-methoxyethyl)pyrrolidin-3-yl)-3-(1-methyl-3-(4-(methylthio)phenyl)-1H-pyrazol-5-yl)urea] | < 100 nM |
| COCCN1C[C@@H](NC(=O)Nc2cc(-c3ccccc3)nn2-c2ccccc2)[C@H](c2ccc(F)c(F)c2)C1 [Example 126, 1-((3S,4R)-4-(3,4-difluorophenyl)-1-(2-methoxyethyl)pyrrolidin-3-yl)-3-(1,3-diphenyl-1H-pyrazol-5-yl)urea] | < 100 nM |
| COCCN1C[C@@H](NC(=O)Nc2c(C)c(C)nn2-c2ccccc2)[C@H](c2ccc(F)cc2)C1 [Example 129, 1-(3,4-dimethyl-1-phenyl-1H-pyrazol-5-yl)-3-((3S,4R)-4-(4-fluorophenyl)-1-(2-methoxyethyl)pyrrolidin-3-yl)urea] | < 100 nM |
| COCCN1C[C@@H](NC(=O)Nc2c(OC)c(C)nn2-c2ccccc2)[C@H](c2ccc(F)c(F)c2)C1 [Example 131, 1-((3S,4R)-4-(3,4-difluorophenyl)-1-(2-methoxyethyl)pyrrolidin-3-yl)-3-(4-methoxy-3-methyl-1-phenyl-1H-pyrazol-5-yl)urea] | < 100 nM |
| COCCN1C[C@@H](NC(=O)Nc2c(C)c(CO)nn2-c2ccccc2)[C@H](c2ccc(F)c(F)c2)C1 [Example 132, 1-((3S,4R)-4-(3,4-difluorophenyl)-1-(2-methoxyethyl)pyrrolidin-3-yl)-3-(3-(hydroxy-methyl)-4-methyl-1-phenyl-1H-pyrazol-5-yl)urea] | < 100 nM |
| COCCN1C[C@@H](NC(=O)Nc2c(C)c(CCO)nn2-c2ccccc2)[C@H](c2ccc(F)c(F)c2)C1 [Example 133, 1-((3S,4R)-4-(3,4-difluorophenyl)-1-(2-methoxyethyl)pyrrolidin-3-yl)-3-(3-(2-hydroxy-ethyl)-4-methyl-1-phenyl-1H-pyrazol-5-yl)urea] | < 100 nM |
| COCCc1nn(-c2ccccc2)c(NC(=O)N[C@@H]2CN(CCOC)C[C@H]2c2ccc(F)c(F)c2)c1C [Example 134, 1-((3S,4R)-4-(3,4-difluorophenyl)-1-(2-methoxyethyl)pyrrolidin-3-yl)-3-(3-(2-methoxy-ethyl)-4-methyl-1-phenyl-1H-pyrazol-5-yl)urea] | < 100 nM |

Results, then the compound that gave them:

| IC50 | SMILES |
| --- | --- |
| < 100 nM | COCCN1C[C@@H](NC(=O)Nc2cc(-c3ccc(OC)cc3)nn2C)[C@H](c2ccccc2)C1 [Example 108, 1-((3S,4R)-1-(2-methoxy-ethyl)-4-phenylpyrrolidin-3-yl)-3-(3-(4-methoxy-phenyl)-1-methyl-1H-pyrazol-5-yl)urea] |
| 100 to 1000 nM | COCCN1C[C@@H](NC(=O)Nc2cc(-c3ccccc3)nn2C)[C@H](c2cccc(C(F)(F)F)c2)C1 [Example 109, 1-((3S,4R)-1-(2-methoxy-ethyl)-4-(3-(trifluoro-methyl)phenyl)pyrrolidin-3-yl)-3-(1-methyl-3-phenyl-1H-pyrazol-5-yl) urea] |
| < 100 nM | COCCN1C[C@@H](NC(=O)Nc2cc(-c3ccc(F)cc3)nn2C)[C@H](c2ccc(F)c(F)c2)C1 [Example 113, 1-((3S,4R)-4-(3,4-difluorophenyl)-1-(2-methoxyethyl)pyrrolidin-3-yl)-3-(3-(4-fluoro-phenyl)-1-methyl-1H-pyrazol-5-yl)urea] |
| < 100 nM | COCCN1C[C@@H](NC(=O)Nc2cc(-c3cccc(F)c3)nn2C)[C@H](c2ccc(F)c(F)c2)C1 [Example 114, 1-((3S,4R)-4-(3,4-difluorophenyl)-1-(2-methoxyethyl)pyrrolidin-3-yl)-3-(3-(3-fluoro-phenyl)-1-methyl-1H-pyrazol-5-yl)urea] |
| < 100 nM | COCCN1C[C@@H](NC(=O)Nc2c(C)c(C(C)(C)CO)nn2-c2ccccc2)[C@H](c2ccc(F)c(F)c2)C1 [Example 118, 1-((3S,4R)-4-(3,4-difluorophenyl)-1-(2-methoxyethyl)pyrrolidin-3-yl)-3-(3-(1-hydroxy-2-methylpropan-2-yl)-4-methyl-1-phenyl-1H-pyrazol-5-yl)urea] |
| < 100 nM | COCCN1C[C@@H](NC(=O)Nc2cc(-c3ccc(Cl)cc3)nn2C)[C@H](c2ccc(F)c(F)c2)C1 [Example 119, 1-(3-(4-chlorophenyl)-1-methyl-1H-pyrazol-5-yl)-3-((3S,4R)-4-(3,4-difluorophenyl)-1-(2-methoxyethyl)pyrrolidin-3-yl)urea] |
| < 100 nM | COCCN1C[C@@H](NC(=O)Nc2cc(-c3ccc(C(=O)OC)cc3)nn2C)[C@H](c2ccc(F)c(F)c2)C1 [Example 121, methyl 4-(5-(3-((3S,4R)-4-(3,4-difluorophenyl)-1-(2-methoxyethyl)pyrrolidin-3-yl)ureido)-1-methyl-1H-pyrazol-3-yl)benzoate] |
| < 100 nM | COCCCc1nn(-c2ccccc2)c(NC(=O)N[C@@H]2CN(CCOC)C[C@H]2c2ccc(F)c(F)c2)c1C [Example 127, 1-((3S,4R)-4-(3,4-difluorophenyl)-1-(2-methoxyethyl)pyrrolidin-3-yl)-3-(3-(3-methoxypropyl)-4-methyl-1-phenyl-1H-pyrazol-5-yl)urea] |
| < 100 nM | COCCN1C[C@@H](NC(=O)Nc2c3c(nn2-c2ccccc2)CCC3)[C@H](c2ccc(F)cc2)C1 [Example 128, 1-((3S,4R)-4-(4-fluorophenyl)-1-(2-methoxyethyl)pyrrolidin-3-yl)-3-(2-phenyl-2,4,5,6-tetrahydrocyclo-penta[c]pyrazol-3-yl)urea] |
| < 100 nM | COCCOc1ccc(-c2cc(NC(=O)N[C@@H]3CN(CCOC)C[C@H]3c3ccc(F)c(F)c3)n(C)n2)cc1 [Example 130, 1-((3S,4R)-4-(3,4-difluorophenyl)-1-(2-methoxyethyl)pyrrolidin-3-yl)-3-(3-(4-(2-methoxyethoxy)phenyl)-1-methyl-1H-pyrazol-5-yl)urea] |
| < 100 nM | CCOc1nn(-c2ccccc2)c(NC(=O)N[C@@H]2CN(CCOC)C[C@H]2c2ccc(F)c(F)c2)c1C [Example 135, 1-((3S,4R)-4-(3,4-difluorophenyl)-1-(2-methoxyethyl)pyrrolidin-3-yl)-3-(3-ethoxy-4-methyl-1-phenyl-1H-pyrazol-5-yl)urea] |
| 100 to 1000 nM | COCCN1C[C@@H](NC(=O)Nc2cc(OCc3ccccc3)nn2C)[C@H](c2ccc(F)c(F)c2)C1 [Example 136, 1-(3-(benzyloxy)-1-methyl-1H-pyrazol-5-yl)-3-((3S,4R)-4-(3,4-difluorophenyl)-1-(2-methoxyethyl)pyrrolidin-3-yl)urea] |
